# Laboratory results as given in US8710224B2, “Heterocyclic compounds as CCR2B antagonists” (AstraZeneca AB, priority 2004, dated 2014).
# pIC50: −log10 of the molar value.
# Target: T1, recombinant human CCR5 receptor (Homo sapiens, UniProt P51681)
# T1 construct: expressed in transfected cells; host or cells: Chinese hamster ovary (CHO) cells; membranes
# Assay: Radioligand binding assay for inhibition of the binding of MIP-1α
# Settings: displacement of 0.1 nM iodinated MIP-1α; membranes of Chinese hamster ovary cells expressing CCR5
# Method: Biological Assay for the Ability of Compounds to Inhibit the Binding of MIP-1α This ability is assessed using an in vitro radioligand binding assay. Membranes are prepared from Chinese hamster ovary cells which express the recombinant human CCR5 receptor. These membranes are incubated with 0.1 nM iodinated MIP-1α, scintillation proximity beads and various concentrations of the compounds of the invention in 96-well plates. The amount of iodinated MIP-1α bound to the receptor is then determined by scintillation counting.
# T1 sequence (P51681 whole entry): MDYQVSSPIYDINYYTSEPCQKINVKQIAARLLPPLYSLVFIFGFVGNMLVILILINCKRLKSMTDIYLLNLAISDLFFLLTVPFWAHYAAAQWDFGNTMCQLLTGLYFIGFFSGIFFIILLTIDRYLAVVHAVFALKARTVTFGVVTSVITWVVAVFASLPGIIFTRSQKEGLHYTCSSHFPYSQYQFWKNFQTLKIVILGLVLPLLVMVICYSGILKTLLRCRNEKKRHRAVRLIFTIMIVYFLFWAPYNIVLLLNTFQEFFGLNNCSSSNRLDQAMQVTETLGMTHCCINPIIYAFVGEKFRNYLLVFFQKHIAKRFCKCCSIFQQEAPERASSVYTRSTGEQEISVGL
structure (smiles),measurement,value
"N#Cc1ccc(OCCN2CCC[C@@H](CN3CCN(C(=O)Nc4ccc(Cl)c(Cl)c4)CC3)C2)cc1 [Example 170, 4-({(3S)-1-[2-(4-Cyanophenoxy)ethyl]piperidin-3-yl}methyl)-N-(3,4-dichlorophenyl)piperazine-1-carboxamide]",pIC50,> 5.00
"O=C(Nc1ccc(Cl)c(Cl)c1)N1CCN(C[C@@H]2CCCN(CCOc3ccc(F)cc3)C2)CC1 [Example 171, N-(3,4-Dichlorophenyl)-4-({(3S)-1-[2-(4-fluorophenoxy)ethyl]piperidin-3-yl}methyl)piperazine-1-carboxamide]",pIC50,> 5.00
"O=C(Nc1ccc(Cl)c(Cl)c1)N1CCN(C[C@@H]2CCCN(C3CCOCC3)C2)CC1 [Example 172, N-(3,4-Dichlorophenyl)-4-{[(3S)-1-(tetrahydro-2H-pyran-4-yl)piperidin-3-yl]methyl}piperazine-1-carboxamide]",pIC50,> 5.00
"CC(=O)N1CCC(N2CCC[C@@H](CN3CCN(C(=O)Nc4ccc(Cl)c(Cl)c4)CC3)C2)CC1 [Example 175, 4-{[(3S)-1′-Acetyl-1,4′-bipiperidin-3-yl]methyl}-N-(3,4-dichlorophenyl)piperazine-1-carboxamide]",pIC50,> 5.00
"CS(=O)(=O)N1CCC(N2CCC[C@@H](CN3CCN(C(=O)Nc4ccc(Cl)c(Cl)c4)CC3)C2)CC1 [Example 176, N-(3,4-Dichlorophenyl)-4-{[(3S)-1′-(methylsulfonyl)-1,4′-bipiperidin-3-yl]methyl}piperazine-1-carboxamide]",pIC50,> 5.00
"O=C(Nc1cccc(Cl)c1)N1CCN(C[C@@H]2CCCN(CCc3ccccc3)C2)CC1 [Example 180, N-(3-chlorophenyl)-4-{[(3R)-1-(2-phenylethyl)piperidin-3-yl]methyl} piperazine-1-carboxamide]",pIC50,> 5.00
"O=C(Nc1ccc(Cl)cc1)N1CCN(C[C@@H]2CCCN(CCc3ccccc3)C2)CC1 [Example 181, N-(4-chlorophenyl)-4-{[(3R)-1-(2-phenylethyl)piperidin-3-yl]methyl} piperazine-1-carboxamide]",pIC50,> 5.00
"O=C(Nc1ccc(Cl)c(C(F)(F)F)c1)N1CCN(C[C@@H]2CCCN(C3CC3)C2)CC1 [Example 186, N-[4-chloro-3-(trifluoromethyl)phenyl]-4-{[(3S)-1-cyclopropylpiperidin-3-yl]methyl}piperazine-1-carboxamide]",pIC50,> 5.00
"Cc1ccc(NC(=O)N2CCN(C[C@H]3CN(C(C)C)CCO3)CC2)cc1Cl [Example 187, N-(3-chloro-4-methylphenyl)-4-{[(2S)-4-isopropylmorpholin-2-yl]methyl}piperazine-1-carboxamide]",pIC50,> 5.00
"CC(C)N1CCO[C@@H](CN2CCN(C(=O)Nc3cccs3)CC2)C1 [Example 188, 4-{[(2S)-4-isopropylmorpholin-2-yl]methyl}-N-2-thienylpiperazine-1-carboxamide]",pIC50,> 5.00
"CC(C)N1CCO[C@@H](CN2CCN(C(=O)Nc3ccc(C(F)(F)F)nc3)CC2)C1 [Example 192, 4-{[(2S)-4-isopropylmorpholin-2-yl]methyl}-N-[6-(trifluoromethyl)pyridin-3-yl]piperazine-1-carboxamide]",pIC50,> 5.00
"Cc1nn(C)cc1CN1CCC[C@@H](CN2CCN(C(=O)Nc3ccc(Cl)c(Cl)c3)CC2)C1 [Example 197, N-(3,4-Dichlorophenyl)-4-({(3R)-1-[(1,3-dimethyl-1H-pyrazol-4-yl)methyl]piperidin-3-yl}methyl)piperazine-1-carboxamide]",pIC50,> 5.00
"O=C(Nc1ccc(Cl)c(Cl)c1)N1CCN(C[C@@H]2CCCN(Cc3c[nH]nc3-c3cccs3)C2)CC1 [Example 199, N-(3,4-Dichlorophenyl)-4-[((3R)-1-{[3-(2-thienyl)-1H-pyrazol-4-yl]methyl}piperidin-3-yl)methyl]piperazine-1-carboxamide]",pIC50,> 5.00
"O=C(Nc1ccc(Cl)c(Cl)c1)N1CCN(C[C@@H]2CCCN(Cc3c[nH]nc3-c3ccccc3)C2)CC1 [Example 200, N-(3,4-Dichlorophenyl)-4-({(3R)-1-[(3-phenyl-1H-pyrazol-4-yl)methyl]piperidin-3-yl}methyl)piperazine-1-carboxamide]",pIC50,> 5.00
"O=C(Nc1ccc(Cl)c(Cl)c1)N1CCN(C[C@@H]2CCCN(CCC3CCOCC3)C2)CC1 [Example 203, N-(3,4-Dichlorophenyl)-4-({(3R)-1-[2-(tetrahydro-2H-pyran-4-yl)ethyl]piperidin-3-yl}methyl)piperazine-1-carboxamide]",pIC50,> 5.00
"O=C(Nc1ccc(Cl)c(Cl)c1)N1CCN(C[C@@H]2CCCN(CCC3CCNCC3)C2)CC1 [Example 205, N-(3,4-Dichlorophenyl)-4-{[(3R)-1-(2-piperidin-4-ylethyl)piperidin-3-yl]methyl}piperazine-1-carboxamide]",pIC50,> 5.00
"CN1CCN(C)C(CN2CCN(C(=O)Nc3ccc(Cl)c(Cl)c3)CC2)C1 (stereo not shown) [Example 209, 1-{[1,4-Dimethylpiperazin-3-yl]methyl}-N-(3,4-dichlorophenyl)piperazine-4-carboxamide]",pIC50,> 5.00
"CN1CCN[C@@H](C(=O)N2CCN(C(=O)Nc3ccc(Cl)c(Cl)c3)CC2)C1 [Example 210, N-(3,4-Dichlorophenyl)-4-{[(2R)-4-methylpiperazin-2-yl]carbonyl}piperazine-1-carboxamide]",pIC50,> 5.00
"CC(C)N1CCN[C@@H](C(=O)N2CCN(C(=O)Nc3cccc(Cl)c3)CC2)C1 [Example 211, N-(3-chlorophenyl)-4-{[(2R)-4-isopropylpiperazin-2-yl]carbonyl}piperazine-1-carboxamide]",pIC50,> 5.00
"CC(C)N1CCN[C@@H](C(=O)N2CCN(C(=O)Nc3ccc(C(F)(F)F)cc3)CC2)C1 [Example 212, 4-{[(2R)-4-isopropylpiperazin-2-yl]carbonyl}-N-[4-(trifluoromethyl)phenyl]piperazine-1-carboxamide]",pIC50,> 5.00
"CC(C)N1CCN[C@@H](C(=O)N2CCN(C(=O)Nc3ccc(Cl)c(C(F)(F)F)c3)CC2)C1 [Example 213, N-[4-chloro-3-(trifluoromethyl)phenyl]-4-{[(2R)-4-isopropylpiperazin-2-yl]carbonyl}piperazine-1-carboxamide]",pIC50,> 5.00
"CC(C)N1CCN[C@@H](C(=O)N2CCN(C(=O)Nc3cccc(C(F)(F)F)c3)CC2)C1 [Example 214, 4-{[(2R)-4-isopropylpiperazin-2-yl]carbonyl}-N-[3-(trifluoromethyl)phenyl]piperazine-1-carboxamide]",pIC50,> 5.00
"CC(C)N1CCN[C@@H](C(=O)N2CCN(C(=O)Nc3ccc(Cl)cc3)CC2)C1 [Example 215, N-(4-chlorophenyl)-4-{[(2R)-4-isopropylpiperazin-2-yl]carbonyl}piperazine-1-carboxamide]",pIC50,> 5.00
CC(C)N1CCN[C@@H](C(=O)N2CCN(C(=O)Nc3ccc(F)c(Cl)c3)CC2)C1 [Example 216],pIC50,> 5.00
"Cc1ccc(NC(=O)N2CCN(C(=O)[C@H]3CN(C(C)C)CCN3)CC2)cc1F [Example 218, N-(3-fluoro-4-methylphenyl)-4-{[(2R)-4-isopropylpiperazin-2-yl]carbonyl}piperazine-1-carboxamide]",pIC50,> 5.00
"CCC(C)N1CCN[C@@H](C(=O)N2CCN(C(=O)Nc3ccc(Cl)c(Cl)c3)CC2)C1 (stereo partly drawn) [Example 220, 4-{[(2R)-4-sec-butylpiperazin-2-yl]carbonyl}-N-(3,4-dichlorophenyl)piperazine-1-carboxamide]",pIC50,> 5.00
"O=C(Nc1ccc(Cl)c(Cl)c1)N1CCN(C(=O)[C@H]2CN(C3CCOCC3)CCN2)CC1 [Example 221, N-(3,4-dichlorophenyl)-4-{[(2R)-4-(tetrahydro-2H-pyran-4-yl)piperazin-2-yl]carbonyl}piperazine-1-carboxamide]",pIC50,> 5.00
"O=C(Nc1ccc(Cl)c(Cl)c1)N1CCN(C[C@H]2CCN([C@H]3CC[C@](O)(c4cccnc4)CC3)C2)CC1 [Example 228, N-(3,4-dichlorophenyl)-4-{[(3R)-1-(cis-4-hydroxy-4-pyridin-3-ylcyclohexyl)pyrrolidin-3-yl]methyl}piperazine-1-carboxamide]",pIC50,> 5.00
"O=C(Nc1ccc(Cl)c(Cl)c1)N1CCN(C[C@@H]2CCN([C@H]3CC[C@](O)(c4nccs4)CC3)C2)CC1 [Example 229, N-(3,4-dichlorophenyl)-4-({(3S)-1-[cis-4-hydroxy-4-(1,3-thiazol-2-yl)cyclohexyl]pyrrolidin-3-yl}methyl)piperazine-1-carboxamide]",pIC50,> 5.00
"CC(C)N1CC[C@@H](CN2CCN(C(=O)Nc3ccc(Cl)c(Cl)c3)CC2)C1 [Example 231, N-(3,4-dichlorophenyl)-4-{[(3S)-1-isopropylpyrrolidin-3-yl]methyl}piperazine-1-carboxamide]",pIC50,> 5.00
"O=C(Nc1ccc(Cl)c(Cl)c1)N1CCN(C[C@H]2CCN([C@H]3CC[C@H](O)CC3)C2)CC1 [Example 232, N-(3,4-dichlorophenyl)-4-{[(3R)-1-(trans-4-hydroxycyclohexyl)pyrrolidin-3-yl]methyl}piperazine-1-carboxamide]",pIC50,> 5.00
"C[C@@H](Cc1ccc(F)cc1)N1CCO[C@@H](CN2CCN(C(=O)Nc3ccc(F)c(Cl)c3)CC2)C1 [Example 233, N-(3-chloro-4-fluorophenyl)-4-({(2S)-4-[(1S)-2-(4-fluorophenyl)-1-methylethyl]morpholin-2-yl}methyl)piperazine-1-carboxamide]",pIC50,> 5.00
"C[C@H](CC1CCCC1)N1CCO[C@@H](CN2CCN(C(=O)Nc3ccc(F)c(Cl)c3)CC2)C1 [Example 234, N-(3-chloro-4-fluorophenyl)-4-({(2S)-4-[(1R)-2-cyclopentyl-1-methylethyl]morpholin-2-yl}methyl)piperazine-1-carboxamide]",pIC50,> 5.00
"C[C@@H](CC(C)(C)O)N1CCO[C@@H](CN2CCN(C(=O)Nc3ccc(F)c(Cl)c3)CC2)C1 [Example 235, N-(3-chloro-4-fluorophenyl)-4-({(2S)-4-[(1S)-3-hydroxy-1,3-dimethylbutyl]morpholin-2-yl}methyl)piperazine-1-carboxamide]",pIC50,> 5.00
